Activity calls are given as the source filed them. No cut-off for these calls is given here.
Key:
HCC827 = test: Cytotoxicity against human HCC827 cells assessed as growth inhibition after 72 hrs by resazurin dye-based fluorescence analysis; assay type: functional; conditions: HCC827, 72 h
[1] = Chemical stability of compound; assay type: physicochemical
[2] = Cytotoxicity against human BJ cells assessed as growth inhibition after 72 hrs by resazurin dye-based fluorescence analysis; assay type: cell-based
K562 = test: Cytotoxicity against human K562 cells assessed as growth inhibition after 72 hrs by resazurin dye-based fluorescence analysis; assay type: functional; conditions: K562, 72 h
EOL1 [3] = test: Cytotoxicity against FIP1L1-PDGFRA positive human EOL-1 cells assessed as growth inhibition after 72 hrs by resazurin dye-based fluorescence analysis; assay type: functional; conditions: EOL1, 72 h
[4] = Cytotoxicity against human CEM cells assessed as growth inhibition after 72 hrs by resazurin dye-based fluorescence analysis; assay type: cell-based; conditions: CEM (CCRF-CEM) cells
[5] = Selectivity index, ratio of GI50 for human BJ cells to GI50 for FIP1L1-PDGFRA positive human EOL-1 cells after 72 hrs by resazurin dye-based fluorescence analysis
[6] = target: Platelet-derived growth factor receptor alpha (Homo sapiens, UniProt P16234, V561D); test: biochemical; assay type: cell-based, Sf9
Chain of Platelet-derived growth factor receptor alpha (P16234 24-1089 V561D limits assumed): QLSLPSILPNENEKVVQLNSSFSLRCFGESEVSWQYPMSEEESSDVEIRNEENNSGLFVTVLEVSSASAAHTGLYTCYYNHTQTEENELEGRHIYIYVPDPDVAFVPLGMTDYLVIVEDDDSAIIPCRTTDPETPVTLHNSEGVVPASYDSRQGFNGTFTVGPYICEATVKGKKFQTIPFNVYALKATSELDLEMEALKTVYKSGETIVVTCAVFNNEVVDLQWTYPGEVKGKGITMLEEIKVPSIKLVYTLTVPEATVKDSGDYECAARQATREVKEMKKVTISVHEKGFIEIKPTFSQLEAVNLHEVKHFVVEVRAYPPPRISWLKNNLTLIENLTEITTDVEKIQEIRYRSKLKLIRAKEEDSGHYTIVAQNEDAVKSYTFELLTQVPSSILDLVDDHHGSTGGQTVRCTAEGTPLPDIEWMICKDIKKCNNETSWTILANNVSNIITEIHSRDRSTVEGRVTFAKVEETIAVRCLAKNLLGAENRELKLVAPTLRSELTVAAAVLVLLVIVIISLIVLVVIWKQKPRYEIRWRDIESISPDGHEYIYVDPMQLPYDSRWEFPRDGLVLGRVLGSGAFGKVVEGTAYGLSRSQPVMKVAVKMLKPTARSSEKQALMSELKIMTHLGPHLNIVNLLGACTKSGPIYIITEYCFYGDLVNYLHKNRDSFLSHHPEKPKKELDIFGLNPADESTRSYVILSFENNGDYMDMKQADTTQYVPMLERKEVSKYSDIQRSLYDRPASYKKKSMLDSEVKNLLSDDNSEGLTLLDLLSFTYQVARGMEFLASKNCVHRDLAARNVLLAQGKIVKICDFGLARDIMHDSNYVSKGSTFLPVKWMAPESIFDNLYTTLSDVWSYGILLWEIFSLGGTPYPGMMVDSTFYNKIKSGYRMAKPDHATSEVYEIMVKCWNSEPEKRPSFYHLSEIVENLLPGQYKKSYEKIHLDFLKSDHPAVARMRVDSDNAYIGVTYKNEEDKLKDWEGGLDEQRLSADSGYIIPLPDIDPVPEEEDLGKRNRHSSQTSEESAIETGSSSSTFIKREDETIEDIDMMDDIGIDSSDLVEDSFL

EOL1 [7] = test: Induction of apoptosis in human FIP1L1-PDGFRA positive EOL-1 cells assessed as increase in cell accumulation at subG1 phase at >=10 nM after 24 hrs by propidium iodide staining based flow cytometry relative to control; assay type: functional
EOL1 [8] = test: Induction of cell cycle arrest at G1 phase in human FIP1L1-PDGFRA positive EOL-1 cells at 10 nM after 24 hrs by propidium iodide staining based flow cytometry; assay type: functional

| Stability [1] | Compound | GI50 (HCC827) [µM] | GI50 at 72 h [2] [µM] | GI50 (K562) [µM] | GI50 (EOL1 [3]) [µM] | GI50 at 72 h [4] [µM] | RatioGI50 [5] | IC50 [6] [µM] | Activity (EOL1 [7]) | Activity (EOL1 [8]) |
| --- | --- | --- | --- | --- | --- | --- | --- | --- | --- | --- |
| Unstable | N[C@H]1CC[C@H](Nc2nc(Nc3ccc(-n4cnnc4)cc3)c3ncn(C4CCCC4)c3n2)CC1 | 0.865 | 12.8 | 1.12 | 0.005 | 0.671 | – | – | – | – |
| – | N[C@H]1CC[C@H](Nc2nc(Nc3ccccc3CN3CCOCC3)c3ncn(C4CCCC4)c3n2)CC1 | 22.2 | 30.4 | 4.11 | 4.52 | 18.1 | 7 | > 20 | – | – |
| – | NCCCCNc1nc(Nc2ccccc2CN2CCOCC2)c2ncn(C3CCCC3)c2n1 | 26.3 | 37.5 | 12.2 | 6.41 | 25.7 | 6 | > 20 | – | – |
| – | N[C@H]1CC[C@H](Nc2nc(Nc3ccccc3CN3CCOCC3)c3ncn(CCCO)c3n2)CC1 | > 40 | > 40 | > 40 | 10.6 | > 40 | >4 | > 20 | – | – |
| – | NCCCCNc1nc(Nc2ccc(CN3CCOCC3)cc2)c2ncn(C3CCC(O)C3)c2n1 (stereo unspecified) | 3.23 | 4.9 | 2.23 | 0.036 | 5.51 | – | – | – | – |
| – | OCCCCNc1nc(Nc2ccc(CN3CCOCC3)cc2)c2ncn(C3CCC(O)C3)c2n1 (stereo unspecified) | 3.26 | 26.1 | 3.78 | 0.162 | 6.43 | – | – | – | – |
| – | N[C@H]1CC[C@H](Nc2nc(Nc3ccc(-c4cccs4)nc3)c3ncn(C4CCCC4)c3n2)CC1 | 0.652 | 2.94 | 0.574 | 0.021 | 0.477 | – | – | – | – |
| – | OCCCNc1nc(Nc2ccc(Oc3nccs3)cc2)c2ncn(C3CCCC3)c2n1 | 6.49 | 34.1 | 11.3 | 0.442 | 23 | – | – | – | – |
| – | N[C@H]1CC[C@H](Nc2nc(Nc3ccc(CN4CCOCC4)cc3)c3ncn(C4CCCC4)c3n2)CC1 | 1.01 | 12.3 | 1.12 | 0.007 | 0.82 | – | – | Active | Active |
| – | N[C@H]1CC[C@H](Nc2nc(Nc3ccc(Oc4ncccn4)cc3)c3ncn(C4CCCC4)c3n2)CC1 | 2.72 | 16.9 | 2.27 | 0.02 | 1.15 | – | – | – | – |
| – | N[C@H]1CC[C@H](Nc2nc(Nc3ccc(-c4ccccc4O)cc3)c3ncn(C4CCCC4)c3n2)CC1 | 2.53 | 9.59 | 2.08 | 0.053 | 1.49 | – | – | – | – |
| – | N[C@H]1CC[C@H](Nc2nc(Nc3ccc(Oc4ccc(Br)cn4)cc3)c3ncn(C4CCCC4)c3n2)CC1 | 3.73 | > 40 | 6.08 | 0.122 | 6.16 | – | – | – | – |
| – | COc1ccc(-c2ccc(Nc3nc(N[C@H]4CC[C@H](N)CC4)nc4c3ncn4C3CCCC3)cn2)cc1 | 0.581 | 7.23 | 0.698 | 0.025 | 0.544 | – | – | – | – |
| – | OCCCCNc1nc(Nc2ccc(N3CCN(Cc4ccccc4)CC3)cc2)c2ncn(C3CCC(O)C3)c2n1 (stereo unspecified) | 3.96 | 23.8 | 3.73 | 0.223 | 9.09 | – | – | – | – |
| – | N[C@H]1CC[C@H](Nc2nc(Nc3ccc(CN4CCOCC4)cc3)c3ncn(C4CCC(O)C4)c3n2)CC1 (stereo partly specified) | 0.801 | > 40 | 1.04 | 0.008 | 1.42 | – | – | – | – |
| – | NCCCCNc1nc(Nc2ccc(N3CCN(Cc4ccccc4)CC3)cc2)c2ncn(CCCO)c2n1 | 6.7 | 28.5 | 2.57 | 0.158 | 7.57 | – | – | – | – |
| – | COc1ccccc1-c1ccc(Nc2nc(N[C@H]3CC[C@H](N)CC3)nc3c2ncn3C2CCCC2)cn1 | 0.638 | 6.2 | 0.553 | 0.014 | 0.46 | – | – | – | – |
| – | Cc1ccc(NC(=O)c2ccc(CN3CCN(C)CC3)cc2)cc1Nc1nccc(-c2cccnc2)n1 [IMATINIB] | > 40 | > 40 | 0.73 | < 0.0005 | 35.8 | >80000 | – | – | – |
| – | N[C@H]1CC[C@H](Nc2nc(Nc3ccc(N4CCN(Cc5ccccc5)CC4)cc3)c3ncn(C4CCC(O)C4)c3n2)CC1 (stereo partly specified) | 0.84 | 16.9 | 0.652 | 0.011 | 0.54 | – | – | – | – |
| – | N[C@H]1CC[C@H](Nc2nc(Nc3ccc(-n4cncn4)cc3)c3ncn(C4CCCC4)c3n2)CC1 | 1.42 | 14.7 | 1.55 | 0.008 | 0.871 | – | – | – | – |
| Unstable | N[C@H]1CC[C@H](Nc2nc(Nc3ccc(-n4cccn4)cc3)c3ncn(C4CCCC4)c3n2)CC1 | 0.847 | 10.4 | 0.982 | 0.008 | 0.933 | – | – | – | – |
| – | COc1ccccc1-c1ccc(Nc2nc(N[C@H]3CC[C@H](N)CC3)nc3c2ncn3C2CCCC2)cc1 | 2.3 | 22.8 | 2.32 | 0.117 | 2.35 | – | – | – | – |
| – | CC(C)(C)c1cc(NC(=O)Nc2ccc(-c3cn4c(n3)sc3cc(OCCN5CCOCC5)ccc34)cc2)no1 [QUIZARTINIB] | > 40 | > 40 | > 40 | < 0.0005 | > 40 | – | – | – | – |
| – | c1csc(Oc2ccc(Nc3nc(N4CCOCC4)nc4c3ncn4C3CCCC3)cc2)n1 | 15.4 | > 40 | > 40 | 0.347 | > 40 | – | – | – | – |
| – | NCCCCNc1nc(Nc2cccc(CN3CCOCC3)c2)c2ncn(C3CCCC3)c2n1 | 5.37 | 22 | 8.4 | 0.061 | 8.19 | – | – | – | – |

Reference: ChEMBL document CHEMBL4342414, “Activity of 2,6,9-trisubstituted purines as potent PDGFRα kinase inhibitors with antileukaemic activity” (Eur J Med Chem, 2019)
